Data reported in the supplement of paper PMC8149375.

Tests used:
Details in all cases: treatment: drug + dasatinib (fixed dose, not stated); 5 days
UO-31 [1] = assay: minimum viability across doses, drug + dasatinib, relative to DMSO (fraction); higher = less growth inhibition
Description: (§1)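 Primary HTS combination arm: 8 RCC cell lines treated with 8 doses (up to 10 uM) of each library drug plus a fixed dose of dasatinib (dose not stated) for 5 days; viability read by CellTiter-Glo and normalised to DMSO. GI50 was fitted with XLfit, AUC is the area under the dose-response curve, and minimum viability is the lowest fraction of DMSO viability across doses.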

786-O [2] = assay: as above
Description: as §1

TK-10 [3] = assay: as above
Description: as §1

ACHN [4] = assay: as above
Description: as §1

769-P [5] = assay: as above
Description: as §1

CAKI-1 [6] = assay: as above
Description: as §1

A498 [7] = assay: as above
Description: as §1

SN12C [8] = assay: as above
Description: as §1

UO-31 [9] = assay: GI50 of drug in presence of dasatinib; higher = less potent
Description: as §1

786-O [10] = assay: as above
Description: as §1

TK-10 [11] = assay: as above
Description: as §1

769-P [12] = assay: as above
Description: as §1

CAKI-1 [13] = assay: as above
Description: as §1

A498 [14] = assay: as above
Description: as §1

SN12C [15] = assay: as above
Description: as §1

UO-31 [16] = assay: AUC of dose-response viability curve, drug + dasatinib, normalised to DMSO (arbitrary (AUC of normalised viability)); higher = less growth inhibition
Description: as §1

786-O [17] = assay: as above
Description: as §1

TK-10 [18] = assay: as above
Description: as §1

ACHN [19] = assay: as above
Description: as §1

769-P [20] = assay: as above
Description: as §1

CAKI-1 [21] = assay: as above
Description: as §1

A498 [22] = assay: as above
Description: as §1

SN12C [23] = assay: as above
Description: as §1

| SMILES | minimum viability across doses (UO-31 [1]) | minimum viability across doses (786-O [2]) | minimum viability across doses (TK-10 [3]) | minimum viability across doses (ACHN [4]) | minimum viability across doses (769-P [5]) | minimum viability across doses (CAKI-1 [6]) | minimum viability across doses (A498 [7]) | minimum viability across doses (SN12C [8]) | GI50 of drug (UO-31 [9]) | GI50 of drug (786-O [10]) | GI50 of drug (TK-10 [11]) | GI50 of drug (769-P [12]) | GI50 of drug (CAKI-1 [13]) | GI50 of drug (A498 [14]) | GI50 of drug (SN12C [15]) | AUC of dose-response viability curve (UO-31 [16]) | AUC of dose-response viability curve (786-O [17]) | AUC of dose-response viability curve (TK-10 [18]) | AUC of dose-response viability curve (ACHN [19]) | AUC of dose-response viability curve (769-P [20]) | AUC of dose-response viability curve (CAKI-1 [21]) | AUC of dose-response viability curve (A498 [22]) | AUC of dose-response viability curve (SN12C [23]) |
| --- | --- | --- | --- | --- | --- | --- | --- | --- | --- | --- | --- | --- | --- | --- | --- | --- | --- | --- | --- | --- | --- | --- | --- |
| O=c1cc(N2CCOCC2)oc2c(-c3ccccc3)cccc12 + Cc1nc(Nc2ncc(C(=O)Nc3c(C)cccc3Cl)s2)cc(N2CCN(CCO)CC2)n1 [dasatinib] | 0.457 | 0.394 | 0.663 | 0.362 | 0.412 | 0.393 | 0.656 | 0.512 | 9.2 µM | 4.54 µM | > 10 µM | 5.32 µM | 3.01 µM | > 10 µM | > 10 µM | 3.24 | 2.28 | 2.49 | 1.77 | 2.2 | 1.98 | 2.88 | 2.34 |
| CCO.N#CC(=C(/N)Sc1ccccc1N)/C(C#N)=C(\N)Sc1ccccc1N [U0126-EtOH] + Cc1nc(Nc2ncc(C(=O)Nc3c(C)cccc3Cl)s2)cc(N2CCN(CCO)CC2)n1 [dasatinib] | 0.792 | 0.526 | 0.524 | 0.353 | 0.68 | 0.46 | 0.888 | 0.598 | > 10 µM | > 10 µM | > 10 µM | > 10 µM | 6.71 µM | > 10 µM | > 10 µM | 3.2 | 2.5 | 2.65 | 1.84 | 2.5 | 2.37 | 3.54 | 2.4 |
| CN1C(=O)C(Cc2c[nH]c3ccccc23)NC1=S (stereo not given) [Necrostatin-1] + Cc1nc(Nc2ncc(C(=O)Nc3c(C)cccc3Cl)s2)cc(N2CCN(CCO)CC2)n1 [dasatinib] | 1.06 | 0.628 | 0.639 | 0.492 | 0.71 | 0.535 | 0.963 | 0.7 | > 10 µM | > 10 µM | > 10 µM | > 10 µM | > 10 µM | > 10 µM | > 10 µM | 4.58 | 2.48 | 2.34 | 1.92 | 2.66 | 2.13 | 3.71 | 2.59 |
| Cc1ccccc1-n1c(Cn2cnc3c(N)ncnc32)nc2cccc(C)c2c1=O + Cc1nc(Nc2ncc(C(=O)Nc3c(C)cccc3Cl)s2)cc(N2CCN(CCO)CC2)n1 [dasatinib] | 0.738 | 0.444 | 0.651 | 0.443 | 0.612 | 0.516 | 0.859 | 0.695 | > 10 µM | 5.69 µM | > 10 µM | > 10 µM | > 10 µM | > 10 µM | > 10 µM | 3.34 | 1.98 | 2.49 | 1.87 | 2.4 | 2.28 | 3.27 | 2.53 |
| Oc1cc(O)cc(/C=C/c2ccc(O)c(O)c2)c1 [Piceatannol] + Cc1nc(Nc2ncc(C(=O)Nc3c(C)cccc3Cl)s2)cc(N2CCN(CCO)CC2)n1 [dasatinib] | 1.24 | 0.31 | 0.653 | 0.167 | 0.498 | 0.135 | 0.903 | 0.603 | > 10 µM | 0.354 µM | > 10 µM | 9.79 µM | 1.15 µM | > 10 µM | > 10 µM | 5.19 | 1.91 | 2.59 | 1.78 | 1.97 | 2.07 | 3.83 | 2.46 |
| CC[C@H](Nc1ncnc2[nH]cnc12)c1nc2cccc(F)c2c(=O)n1-c1ccccc1 [CAL-101 (GS-1101)] + Cc1nc(Nc2ncc(C(=O)Nc3c(C)cccc3Cl)s2)cc(N2CCN(CCO)CC2)n1 [dasatinib] | 0.362 | 0.298 | 0.493 | 0.341 | 0.477 | 0.0955 | 0.843 | 0.546 | 6.29 µM | 1.48 µM | 8.33 µM | 7.53 µM | – | > 10 µM | > 10 µM | 3.55 | 2.12 | 2.44 | 1.86 | 2.32 | 1.84 | 3.29 | 2.3 |
| O=C1NC(=O)/C(=C/c2ccc3nccnc3c2)S1 + Cc1nc(Nc2ncc(C(=O)Nc3c(C)cccc3Cl)s2)cc(N2CCN(CCO)CC2)n1 [dasatinib] | 0.879 | 0.464 | 0.64 | 0.479 | 0.491 | 0.343 | 0.781 | 0.704 | > 10 µM | 1.55 µM | > 10 µM | 8.39 µM | 4.25 µM | > 10 µM | > 10 µM | 3.46 | 2.15 | 2.57 | 2.01 | 2.33 | 2.23 | 3.09 | 2.56 |
